Reference: patent US11963960B2 (Flash Therapeutics, LLC, priority 2020, dated 2024)

Each compound was assayed against N-terminally GST-tagged HCK (75-526) (Homo sapiens (Human), UniProt P08631) (assay: HCK Kinase Assay (ProFluor Src-Family Kinase Assay)). Conditions: not given.
Format: biochemical
Outline: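 ProFluor Src-family format: after the kinase reaction, protease solution was added for 60 min at room temperature (22-25° C), then stabilizer.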

Sequence of N-terminally GST-tagged HCK (75-526) (P08631 75-526): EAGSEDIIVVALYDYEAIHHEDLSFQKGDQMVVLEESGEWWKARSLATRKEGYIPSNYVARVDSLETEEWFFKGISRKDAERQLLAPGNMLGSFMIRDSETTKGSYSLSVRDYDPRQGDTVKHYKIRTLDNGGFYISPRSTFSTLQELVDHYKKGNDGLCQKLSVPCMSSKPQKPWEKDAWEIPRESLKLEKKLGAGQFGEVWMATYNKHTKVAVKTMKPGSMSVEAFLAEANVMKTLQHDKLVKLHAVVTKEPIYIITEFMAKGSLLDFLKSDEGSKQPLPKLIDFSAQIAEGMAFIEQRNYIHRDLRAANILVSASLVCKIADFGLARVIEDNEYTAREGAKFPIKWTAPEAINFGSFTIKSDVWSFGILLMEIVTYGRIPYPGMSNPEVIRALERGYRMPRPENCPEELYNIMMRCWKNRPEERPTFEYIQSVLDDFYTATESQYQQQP

IC50	SMILES
250 to 10000 nM	[2H]C([2H])([2H])N1C([2H])([2H])C([2H])([2H])N([C@H]2CC[C@H](n3cc(-c4ccc(Oc5ccccc5)cc4)c4c(N)ncnc43)CC2)C([2H])([2H])C1([2H])[2H] (single isomer, unassigned) [Example 5, 7-((trans)-4-(4-d3-methyl-d8-piperazin-1-yl)cyclohexyl)-5-(4-phenoxyphenyl)-7H-pyrrolo[2,3-d]pyrimidin-4-amine]
250 to 10000 nM	[2H]C([2H])([2H])N1CCN([C@H]2CC[C@@H](n3cc(-c4ccc(Oc5ccccc5)cc4)c4c(N)ncnc43)CC2)CC1 (single isomer, unassigned) [Example 4, 7-((cis)-4-(4-(trideuteriomethyl)piperazin-1-yl)cyclohexyl)-5-(4-phenoxyphenyl)-7H-pyrrolo[2,3-d]pyrimidin-4-amine]
< 50 nM	[2H]C([2H])([2H])N1CCN([C@H]2CC[C@H](n3cc(-c4ccc(Oc5ccccc5)cc4)c4c(N)ncnc43)CC2)CC1 (single isomer, unassigned) [Example 3, 7-((trans)-4-(4-(trideuteriomethyl)piperazin-1-yl)cyclohexyl)-5-(4-phenoxyphenyl)-7H-pyrrolo[2,3-d]pyrimidin-4-amine]

Same assay, conditions: HCK inhibitory activity, 50 μM ATP; read-out: HCK Activity

SMILES	IC50
CC[C@H]1CN([C@H]2CC[C@H](n3cc(-c4ccc(Oc5ccccc5)cc4)c4c(N)ncnc43)CC2)CCN1 [Example 29, 7-((trans)-4-((S)-3-ethylpiperazin-1-yl)cyclohexyl)-5-(4-phenoxyphenyl)-7H-pyrrolo[2,3-d]pyrimidin-4-amine]	50 to 250 nM
Nc1ncnc2c1c(-c1ccc(Oc3ccccc3)cc1)cn2[C@H]1CC[C@H](NC2CNC2)CC1 [Example 83, 7-((trans)-4-(azetidin-3-ylamino)cyclohexyl)-5-(4-phenoxyphenyl)-7H-pyrrolo[2,3-d]pyrimidin-4-amine]	50 to 250 nM
C[C@@H]1CN([C@H]2CC[C@@H](n3cc(-c4ccc(Oc5ccccc5)cc4)c4c(N)ncnc43)CC2)CCN1 [Example 13, 7-((cis)-4-((R)-3-methylpiperazin-1-yl)cyclohexyl)-5-(4-phenoxyphenyl)-7H-pyrrolo[2,3-d]pyrimidin-4-amine]	< 50 nM
CN(C)[C@H]1CN([C@H]2CC[C@@H](n3cc(-c4ccc(Oc5ccccc5)cc4)c4c(N)ncnc43)CC2)C[C@H]1O [Example 72, (3R,4S)-1-((cis)-4-(4-amino-5-(4-phenoxyphenyl)-7H-pyrrolo[2,3-d]pyrimidin-7-yl)cyclohexyl)-4-(dimethylamino)pyrrolidin-3-ol]	< 50 nM
Nc1ncnc2c1c(-c1ccc(Oc3ccccc3)cc1)cn2[C@H]1CC[C@H](N2CCN(N)CC2)CC1 [Example 38, 7-((trans)-4-(4-aminopiperazin-1-yl)cyclohexyl)-5-(4-phenoxyphenyl)-7H-pyrrolo[2,3-d]pyrimidin-4-amine]	< 50 nM
CN(C)[C@@H]1CN([C@H]2CC[C@@H](n3cc(-c4ccc(Oc5ccccc5)cc4F)c4c(N)ncnc43)CC2)C[C@H]1O [Example 74, (3R,4R)-1-((cis)-4-(4-amino-5-(2-fluoro-4-phenoxyphenyl)-7H-pyrrolo[2,3-d]pyrimidin-7-yl)cyclohexyl)-4-(dimethylamino)pyrrolidin-3-ol]	50 to 250 nM
C[C@@H]1CN([C@H]2CC[C@@H](n3cc(-c4ccc(Oc5ccccc5)cc4)c4c(N)ncnc43)CC2)CCN1C [Example 24, 7-((cis)-4-((R)-3,4-dimethylpiperazin-1-yl)cyclohexyl)-5-(4-phenoxyphenyl)-7H-pyrrolo[2,3-d]pyrimidin-4-amine]	< 50 nM
Nc1ncnc2c1c(-c1ccc(Oc3ccccc3)cc1)cn2[C@H]1CC[C@@H](N2CCC[C@@H](N)C2)CC1 [Example 58, 7-((cis)-4-((R)-3-aminopiperidin-1-yl)cyclohexyl)-5-(4-phenoxyphenyl)-7H-pyrrolo[2,3-d]pyrimidin-4-amine]	50 to 250 nM
CN(C)[C@@H]1CN([C@H]2CC[C@H](n3cc(-c4ccc(Oc5ccccc5)cc4F)c4c(N)ncnc43)CC2)C[C@H]1O [Example 73, (3R,4R)-1-((trans)-4-(4-amino-5-(2-fluoro-4-phenoxyphenyl)-7H-pyrrolo[2,3-d]pyrimidin-7-yl)cyclohexyl)-4-(dimethylamino)pyrrolidin-3-ol]	< 50 nM
CC1(C)CN([C@H]2CC[C@H](n3nc(-c4ccc(Oc5ccccc5)cc4F)c4c(N)ncnc43)CC2)CCN1 [Example 28, 1-((trans)-4-(3,3-dimethylpiperazin-1-yl)cyclohexyl)-3-(2-fluoro-4-phenoxyphenyl)-1H-pyrazolo[3,4-d]pyrimidin-4-amine]	50 to 250 nM
Nc1ncnc2c1c(-c1ccc(Oc3ccccc3)cc1F)nn2[C@H]1CC[C@@H](N2CCN(CCO)CC2)CC1 [Example 11, 2-(4-((cis)-4-(4-amino-3-(2-fluoro-4-phenoxyphenyl)-1H-pyrazolo[3,4-d]pyrimidin-1-yl)cyclohexyl)piperazin-1-yl)ethanol]	50 to 250 nM
Nc1ncnc2c1c(-c1ccc(Oc3ccccc3)cc1)cn2[C@H]1CC[C@H](N2CCN3C(=O)CCC3C2)CC1 (stereo partly drawn) [Example 42, 2-((trans)-4-(4-amino-5-(4-phenoxyphenyl)-7H-pyrrolo[2,3-d]pyrimidin-7-yl)cyclohexyl)hexahydropyrrolo[1,2-a]pyrazin-6(2H)-one]	50 to 250 nM
CN1CCN([C@H]2CC[C@H](n3cc(-c4ccc(Oc5ccccc5)cc4Cl)c4c(N)ncnc43)CC2)CC1 [Example 106, 5-(2-chloro-4-phenoxyphenyl)-7-((trans)-4-(4-methylpiperazin-1-yl)cyclohexyl)-7H-pyrrolo[2,3-d]pyrimidin-4-amine]	< 50 nM
CNC(=O)C=C1CCC(n2cc(-c3ccc(Oc4ccccc4)cc3)c3c(N)ncnc32)CC1 (stereo not drawn) [Example 97, 2-(4-(4-amino-5-(4-phenoxyphenyl)-7H-pyrrolo[2,3-d]pyrimidin-7-yl)cyclohexylidene)-N-methylacetamide]	< 50 nM
CN1CCN([C@H]2CC[C@H](n3cc(-c4ccc(Oc5ccccc5)cc4)c4c(N)ncnc43)CC2)CC1C(=O)O (stereo partly drawn) [Example 34, 4-((trans)-4-(4-amino-5-(4-phenoxyphenyl)-7H-pyrrolo[2,3-d]pyrimidin-7-yl)cyclohexyl)-1-methylpiperazine-2-carboxylic acid]	< 50 nM

Next, values leading:

IC50	SMILES
50 to 250 nM	CCc1cc(NC(=O)Nc2ccc(-c3cn([C@H]4CC[C@H](N5CCN(C)CC5)CC4)c4ncnc(N)c34)cc2)no1 [Example 117, 1-(4-(4-amino-7-((trans)-4-(4-methylpiperazin-1-yl)cyclohexyl)-7H-pyrrolo[2,3-d]pyrimidin-5-yl)phenyl)-3-(5-ethylisoxazol-3-yl)urea]
< 50 nM	CN1CCN([C@H]2CC[C@H](n3cc(-c4ccc(Oc5cccnn5)cc4)c4c(N)ncnc43)CC2)CC1 [Example 116, 7-((trans)-4-(4-methylpiperazin-1-yl)cyclohexyl)-5-(4-(pyridazin-3-yloxy)phenyl)-7H-pyrrolo[2,3-d]pyrimidin-4-amine]
< 50 nM	CN1CCN([C@H]2CC[C@H](n3cc(-c4ccc(Cc5ccccc5)cc4)c4c(N)ncnc43)CC2)CC1 [Example 115, 5-(4-benzylphenyl)-7-((trans)-4-(4-methylpiperazin-1-yl)cyclohexyl)-7H-pyrrolo[2,3-d]pyrimidin-4-amine]
50 to 250 nM	CCc1cc(NC(=O)Nc2ccc(-c3cn([C@H]4CC[C@H](N5CCN(C)CC5)CC4)c4ncnc(N)c34)cc2)on1 [Example 118, 1-(4-(4-amino-7-((trans)-4-(4-methylpiperazin-1-yl)cyclohexyl)-7H-pyrrolo[2,3-d]pyrimidin-5-yl)phenyl)-3-(3-ethylisoxazol-5-yl)urea]
50 to 250 nM	COc1cc(-c2cn([C@H]3CO[C@H](C4CCN(C)CC4)OC3)c3ncnc(N)c23)ccc1Oc1ccccc1 [Example 131, 5-(3-methoxy-4-phenoxyphenyl)-7-((trans)-2-(1-methylpiperidin-4-yl)-1,3-dioxan-5-yl)-7H-pyrrolo[2,3-d]pyrimidin-4-amine]
< 50 nM	CN1CCN([C@H]2CC[C@H](n3cc(-c4ccc(Oc5c(F)cccc5F)cc4)c4c(N)ncnc43)CC2)CC1 [Example 109, 5-(4-(2,6-difluorophenoxy)phenyl)-7-((trans)-4-(4-methylpiperazin-1-yl)cyclohexyl)-7H-pyrrolo[2,3-d]pyrimidin-4-amine]
< 50 nM	COc1cc(-c2cn([C@H]3CO[C@@H](C4CCN(C)CC4)OC3)c3ncnc(N)c23)ccc1Oc1ccccc1 [Example 133, 5-(3-methoxy-4-phenoxyphenyl)-7-((cis)-2-(1-methylpiperidin-4-yl)-1,3-dioxan-5-yl)-7H-pyrrolo[2,3-d]pyrimidin-4-amine]
< 50 nM	Nc1ncnc2c1c(-c1ccc(Oc3ccccc3)cc1)cn2C1CCN(C2CCCC(N)C2)CC1 (stereo not drawn) [Example 159, 7-(1-(3-aminocyclohexyl)piperidin-4-yl)-5-(4-phenoxyphenyl)-7H-pyrrolo[2,3-d]pyrimidin-4-amine]
< 50 nM	CN1CCC([C@H]2OC[C@H](n3cc(-c4ccc(Oc5ccccc5)cc4)c4c(N)ncnc43)CO2)CC1 [Example 145, 7-((2r,5r)-2-(1-Methylpiperidin-4-yl)-1,3-dioxan-5-yl)-5-(4-phenoxyphenyl)-7H-pyrrolo[2,3-d]pyrimidin-4-amine]
50 to 250 nM	Nc1ncnc2c1c(-c1ccc(Oc3ccccc3)cc1)cn2[C@H]1CC[C@@H](N2CCC3(CCNC3)C2)CC1 (relative stereo) [Example 137, 7-((cis)-4-(2,7-diazaspiro[4.4]nonan-2-yl)cyclohexyl)-5-(4-phenoxyphenyl)-7H-pyrrolo[2,3-d]pyrimidin-4-amine]
50 to 250 nM	CN1CCCC(N2CCC(n3cc(-c4ccc(Oc5ccccc5)cc4)c4c(N)ncnc43)CC2)C1 (stereo not drawn) [Example 160, 7-(1′-methyl-[1,3′-bipiperidin]-4-yl)-5-(4-phenoxyphenyl)-7H-pyrrolo [2,3-d] pyrimidin-4-amine]
50 to 250 nM	CN1CCOC(C2CCC(n3cc(-c4ccc(Oc5ccccc5)cc4)c4c(N)ncnc43)CC2)C1=O (stereo not drawn) [Example 143, 2-(4-(4-Amino-5-(4-phenoxyphenyl)-7H-pyrrolo[2,3-d]pyrimidin-7-yl)cyclohexyl)-4-methylmorpholin-3-one]
